Assay results taken from patent US7208526B2, “Styrylsulfonamides” (Hoffmann-La Roche Inc., priority 2005, dated 2007).
Structures can show the parent of a compound that is named as a salt.

Tested on: HCT 116 cells (human colon carcinoma, ATCC-No. CCl-247)
Assay: Viability assay in HCT 116 cells (CellTiter-Glo Luminescent Cell Viability Assay)
Assay type: cell-based
Conditions: 10 concentrations 30 μM to 0.0015 μM, incubation 120 h (5 days), luminescence (ATP), triplicate
Text: Viability Assay in HCT 116 Cells
This assay is a homogeneous method of determining the number of viable cells in culture based on quantitation of the ATP present, an indicator of metabolically active cells. The assay is designed for use with multiwell formats, making it ideal for automated high-throughput screening (HTS), cell proliferation and cytotoxicity assays. The homogeneous assay procedure involves adding a single reagent (containing luciferase, luciferan substrate, and buffer) directly to cells cultured in serum-supplemented medium. Cell washing, removal of medium and multiple pipetting steps are not required. The system detects as few as 15 cells/well in a 384-well format in 10 minutes after adding reagent and mixing.
The homogeneous “add-mix-measure” format results in cell lysis and generation of a luminescent signal proportional to the amount of ATP present. The amount of ATP is directly proportional to the number of cells present in culture. The above-referenced assay generates a “glow-type” luminescent signal, produced by the luciferase reaction, which has a half-life generally greater than five hours, depending on cell type and medium used. The extended half-life eliminates the need to use reagent injectors and provides flexibility for continuous or batch mode processing of multiple plates. The unique homogeneous format avoids errors that may be introduced by other ATP measurement methods that require multiple steps.
For the assay the cells were seeded in 384 well plates, 1000 cells per well, in the same medium. […] After 5 days the viability assay was done according to the instructions of the manufacturer. In brief: the cell-plate was equilibrated to room temperature for approximately 30 minutes and then reagent (containing luciferase, luciferan substrate, and buffer) was added. The contents were carefully mixed for 15 minutes to induce cell lysis. After 45 minutes the luminescent signal was measured in Victor 2, (scanning multiwell spectrophotometer, Wallac).
In order to achieve a final concentration of 30 μM as highest concentration […] of 10 mM compound stock solution were added directly to 163 μl media. Then step e) of the dilution procedure described below, was followed.
Analysis: • Add 30 μl of reagent containing luciferase, luciferan substrate, and buffer per well, • shake 15 minutes at room temperature • incubate further 45 minutes at room temperature without shaking
Measurement: • Victor 2 scanning multiwell spectrophotometer (Wallac), Luminescence mode (0.5 sec/read, 477 nm) • Determine IC50 using a non-linear curve fit (XLfit® software [ID Business Solution Ltd., Guilford, Surrey, UK])

| SMILES | IC50 [µM] |
| --- | --- |
| O=C(NS(=O)(=O)/C=C/c1ccc(Cl)cc1)c1ccc(Cl)cc1Cl [Example 1-1, (E)-2-(4-Chloro-phenyl)-ethenesulfonic acid 2,4-dichloro-benzoylamide] | 8.5 |
| O=C(NS(=O)(=O)/C=C/c1ccccc1)c1ccc(Cl)cc1Cl [Example 1-2, (E)-2-Phenyl-ethenesulfonic acid 2,4-dichloro-benzoylamide] | 3.1 |
| O=C(NS(=O)(=O)/C=C/c1ccc(C(F)(F)F)cc1)c1ccc(Cl)cc1Cl [Example 1-3, (E)-2-(4-Trifluoromethyl-phenyl)-ethenesulfonic acid 2,4-dichloro-benzoylamide] | 0.5 to 15 |
| Cc1ccc(/C=C/S(=O)(=O)NC(=O)c2ccc(Cl)cc2Cl)c(C)c1 [Example 1-4, (E)-2-(2,4-Dimethyl-phenyl)-ethenesulfonic acid 2,4-dichloro-benzoylamide] | 0.5 to 15 |
| COc1ccccc1/C=C/S(=O)(=O)NC(=O)c1ccc(Cl)cc1Cl [Example 1-5, (E)-2-(2-Methoxy-phenyl)-ethenesulfonic acid 2,4-dichloro-benzoylamide] | 0.5 to 15 |
| O=C(NS(=O)(=O)/C=C/c1ccccc1Cl)c1ccc(Cl)cc1Cl [Example 1-7, (E)-2-(2-Chlorophenyl)-ethenesulfonic acid 2,4-dichloro-benzoylamide] | 0.5 to 15 |
| O=C(NS(=O)(=O)/C=C/c1ccc(F)cc1F)c1ccc(Cl)cc1Cl [Example 1-8, (E)-2-(2,4-Difluoro-phenyl)-ethenesulfonic acid 2,4-dichloro-benzoylamide] | 0.5 to 15 |
| O=C(NS(=O)(=O)/C=C/c1ccc(OC(F)(F)F)cc1)c1ccc(Cl)cc1Cl [Example 1-9, (E)-2-(4-Trifluoromethoxyphenyl)-ethenesulfonic acid 2,4-dichloro-benzoylamide] | 0.5 to 15 |
| CN(C)c1ccccc1/C=C/S(=O)(=O)NC(=O)c1ccc(Cl)cc1Cl [Example 1-13, (E)-2-(2-Dimethylamino-phenyl)-ethenesulfonic acid 2,4-dichloro-benzoylamide] | 0.5 to 15 |
| COc1cccc(/C=C/S(=O)(=O)NC(=O)c2ccc(F)cc2Cl)c1 [Example 1-14, (E)-2-(3-Methoxy-phenyl)-ethenesulfonic acid 2-chloro-4-fluoro-benzoylamide; sodium salt] | 0.5 to 15 |
| O=C(NS(=O)(=O)/C=C/c1ccc(F)cc1F)c1ccc(F)cc1Cl [Example 1-17, (E)-2-(2,4-Difluoro-phenyl)-ethenesulfonic acid 2-chloro-4-fluoro-benzoylamide; sodium salt] | 0.5 to 15 |
| Cc1ccc(/C=C/S(=O)(=O)NC(=O)c2ccc(F)cc2C(F)(F)F)c(C)c1 [Example 1-20, (E)-2-(2,4-Dimethyl-phenyl)-ethenesulfonic acid 4-fluoro-2-trifluoromethyl-benzoylamide; sodium salt] | 0.5 to 15 |
| O=C(NS(=O)(=O)/C=C/c1ccccc1Cl)c1ccc(F)cc1C(F)(F)F [Example 1-23, (E)-2-(2-Chlorophenyl)-ethenesulfonic acid 4-fluoro-2-trifluoromethyl-benzoylamide; sodium salt] | 0.5 to 15 |
| Cc1ccc(/C=C/S(=O)(=O)NC(=O)c2ccc(C(F)(F)F)cc2C(F)(F)F)c(C)c1 [Example 1-26, (E)-2-(2,4-Dimethyl-phenyl)-ethenesulfonic acid 2,4-bis-trifluoromethyl-benzoylamide; sodium salt] | 0.5 to 15 |
| COc1ccccc1/C=C/S(=O)(=O)NC(=O)c1ccc(C(F)(F)F)cc1C(F)(F)F [Example 1-28, (E)-2-(2-Methoxy-phenyl)-ethenesulfonic acid 2,4-bis-trifluoromethyl-benzoylamide; sodium salt] | 0.5 to 15 |
| O=C(NS(=O)(=O)/C=C/c1ccccc1Cl)c1ccc(C(F)(F)F)cc1C(F)(F)F [Example 1-30, (E)-2-(2-Chlorophenyl)-ethenesulfonic acid 2,4-bis-trifluoromethyl-benzoylamide; sodium salt] | 0.5 to 15 |
| O=C(NS(=O)(=O)/C=C/c1ccccc1O)c1ccc(Cl)cc1Cl [Example 1-33, (E)-2-(2-Hydroxy-phenyl)-ethenesulfonic acid 2,4-dichloro-benzoylamide] | 0.5 to 15 |
| O=C(NS(=O)(=O)/C=C/c1cccc(O)c1)c1ccc(Cl)cc1Cl [Example 1-35, (E)-2-(3-Hydroxy-phenyl)-ethenesulfonic acid 2,4-dichloro-benzoylamide] | 0.5 to 15 |
| O=C(NS(=O)(=O)/C=C/c1c(F)cc(F)cc1F)c1ccc(Cl)cc1Cl [Example 1-36, (E)-2-(2,4,6-Trifluoro-phenyl)-ethenesulfonic acid 2,4-dichloro-benzoylamide; sodium salt] | 0.5 to 15 |
| O=C(NS(=O)(=O)/C=C/c1ccc(OC(F)(F)F)cc1)c1ccc(F)cc1Cl [Example 1-39, (E)-2-(4-Trifluoromethoxyphenyl)-ethenesulfonic acid 2-chloro-4-fluoro-benzoylamide; sodium salt] | 0.5 to 15 |
| O=C(NS(=O)(=O)/C=C/c1ccc(C(F)(F)F)cc1)c1ccc(F)cc1C(F)(F)F [Example 1-42, (E)-2-(4-Trifluoromethyl-phenyl)-ethenesulfonic acid 4-fluoro-2-trifluoromethyl-benzoylamide; sodium salt] | 0.5 to 15 |
| O=C(NS(=O)(=O)C=Cc1ccccc1)c1ccc(Cl)cc1F [Example 1-43, 2-Phenyl-ethenesulfonic acid 4-chloro-2-fluoro-benzoylamide] | 0.5 to 15 |
| O=C(NS(=O)(=O)/C=C/c1ccccc1)c1ccc(F)cc1C(F)(F)F [Example 1-45, (E)-2-Phenyl-ethenesulfonic acid 4-fluoro-2-trifluoromethyl-benzoylamide; sodium salt] | 0.5 to 15 |
| C/C(=C\c1ccccc1)S(=O)(=O)NC(=O)c1ccc(Cl)cc1Cl [Example 2-1, (E)-1-Phenyl-propene-2-sulfonic acid 2,4-dichloro-benzoylamide] | 0.5 to 15 |

Continued, values first:

| IC50 [µM] | SMILES |
| --- | --- |
| 9.2 | C/C(=C\S(=O)(=O)NC(=O)c1ccc(Cl)cc1Cl)c1ccccc1 [Example 3-1, (E)-2-Phenyl-propene-1-sulfonic acid 2,4-dichloro-benzoylamide] |
| 0.5 to 15 | Cc1cc(Cl)ccc1C(=O)NS(=O)(=O)/C=C/c1ccccc1Cl [Example 4-2, (E)-2-(2-Chlorophenyl)-ethenesulfonic acid 4-chloro-2-methyl-benzoylamide; sodium salt] |
| 0.5 to 15 | COc1ccccc1/C=C/S(=O)(=O)NC(=O)c1ccc(Cl)cc1C [Example 4-4, (E)-2-(2-Methoxy-phenyl)-ethenesulfonic acid 4-chloro-2-methyl-benzoylamide; sodium salt] |
| 0.5 to 15 | COc1cccc(/C=C/S(=O)(=O)NC(=O)c2ccc(Cl)cc2OC)c1 [Example 4-5, (E)-2-(3-Methoxy-phenyl)-ethenesulfonic acid 4-chloro-2-methoxy-benzoylamide; sodium salt] |
| 0.5 to 15 | COc1ccccc1/C=C/S(=O)(=O)NC(=O)c1ccc(Br)cc1C [Example 4-8, (E)-2-(2-Methoxy-phenyl)-ethenesulfonic acid 4-bromo-2-methyl-benzoylamide; sodium salt] |
| 0.5 to 15 | Cc1cc(Br)ccc1C(=O)NS(=O)(=O)C=Cc1ccccc1Cl [Example 4-10, 2-(2-Chlorophenyl)-ethenesulfonic acid 4-bromo-2-methyl-benzoylamide; sodium salt] |
| 0.5 to 15 | COc1ccccc1/C=C/S(=O)(=O)NC(=O)c1ccc(C)cc1Br [Example 4-13, (E)-2-(2-Methoxy-phenyl)-ethenesulfonic acid 2-bromo-4-methyl-benzoylamide; sodium salt] |
| 0.5 to 15 | Cc1ccc(C(=O)NS(=O)(=O)/C=C/c2ccc(Cl)c(Cl)c2)c(Br)c1 [Example 4-16, (E)-2-(3,4-Dichloro-phenyl)-ethenesulfonic acid 2-bromo-4-methyl-benzoylamide; sodium salt] |
| 0.5 to 15 | O=C(NS(=O)(=O)/C=C/c1ccc(C(F)(F)F)cc1)c1ccc(F)cc1Br [Example 4-17, (E)-2-(4-Trifluoromethyl-phenyl)-ethenesulfonic acid 2-bromo-4-fluoro-benzoylamide; sodium salt] |
| 0.5 to 15 | COc1cccc(/C=C/S(=O)(=O)NC(=O)c2ccc(F)cc2Br)c1 [Example 4-18, (E)-2-(3-Methoxy-phenyl)-ethenesulfonic acid 2-bromo-4-fluoro-benzoylamide; sodium salt] |
| 0.5 to 15 | O=C(NS(=O)(=O)/C=C/c1ccccc1Cl)c1ccc(F)cc1Br [Example 4-21, (E)-2-(2-Chlorophenyl)-ethenesulfonic acid 2-bromo-4-fluoro-benzoylamide; sodium salt] |
